Experimental data reported in the METLIN SMRT retention time set (Domingo-Almenara et al. 2019).

Assay: gradient 5% acetonitrile 3 min, to 50% in 2 min, to 85% in 15 min, held 3 min, 100 µL/min
Conditions: column: Zorbax Extend-C18 2.1 x 50 mm; eluents: water / acetonitrile, 0.1% formic acid
Outline: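 Retention times come from adduct peaks that were picked computationally and then checked by hand. The standards, pure and pooled in mixtures of ~100 molecules, were run on a Zorbax Extend-C18 column (2.1 × 50 mm, 1.8 μm) at 100 μL/min with water and acetonitrile, each with 0.1% formic acid. Detection was by quadrupole time-of-flight mass spectrometry in positive and negative ionization mode, with a dead volume of 40 μL and a dwell volume of 900 μL.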

SMILES | RP-LC retention time [s]
COCCCNC(=O)Cc1c(C)n(C)c2nc(-c3ccccc3)nn2c1=O | 618
Cc1cc(C)cc(NC(=O)NCC2CCOCC2)c1 | 752
CCOC(=O)c1sc2ccccc2c1S(=O)(=O)N1CCC(C(N)=O)(N2CCCCC2)CC1 | 656
CCN1C(=O)c2cccnc2Sc2cc(CNC(=O)c3ccc(C#N)cc3F)ccc21 | 760
CSc1ccccc1C(=O)Nc1nc(CN2CCc3ccccc3C2)cs1 | 594
COCCN1C(=O)CCc2cc(NC(=O)c3ccccc3Br)ccc21 | 746
COc1ccc(-c2cc3n(n2)CCCN(C(C)=O)C3)cc1 | 656
CC(C(=O)N1CCN(C(=O)c2ccco2)CC1)n1c2ccccc2c2cnn(C)c(=O)c21 (configuration not stated) | 746
CCCNC(=O)N1CCCCCC1CN1CCC(C)CC1 (configuration not stated) | 624
c1ccc(-c2csc(Nc3ccccn3)n2)cc1 | 860
CC(C)NC(=O)N1CCCC(c2nc(C3CCOCC3)no2)C1 (configuration not stated) | 661
CN(CC1(C)CCOCC1)S(=O)(=O)c1cc(F)ccc1F | 614
Cc1ccc(-c2nc(CN3CCSCC3)c(C)o2)cc1 | 680
O=C(C1Sc2ccccc2N(CC(=O)N2CCc3ccccc32)C1=O)N1CCCCCC1 (configuration not stated) | 987
Cc1cccc(CNC(=O)c2cc3n(n2)CC(C)(C(=O)NC2CCCCC2)N(C)C3=O)c1 (configuration not stated) | 884
O=C(Nc1ccccc1)N1CCC(n2cnc3cc(F)ccc3c2=O)CC1 | 742
COc1ccc(NC(=O)c2cc(C)n3nc(-c4ccsc4)cc3n2)cc1 | 1120
O=C(Nc1cccc(F)c1)C1CCCN(S(=O)(=O)c2c[nH]c(C(=O)N3CCCC3)c2)C1 (configuration not stated) | 808
O=C(N1CCC(Cc2nc(-c3ccccc3)n[nH]2)C1)C1(c2ccccc2)CC1 (configuration not stated) | 755
CCCN1C(=O)c2cccnc2Sc2cc(C(=O)NC(C)C)ccc21 | 753
Cc1nc2cc(N3CC(C(=O)Nc4cccc(C)c4C)CC3=O)ccc2o1 (configuration not stated) | 785
COc1cccc(CNC(=O)c2ccc3c(c2)nc2n3CCN(Cc3ccccn3)C2=O)c1 | 626
O=S(=O)(Cc1ccccc1)N1CCC(c2nc(C3CC3)no2)C1 (configuration not stated) | 875

SMILES | RP-LC retention time [s]
COc1cc(NC(=O)CCc2c(-c3ccc(Cl)cc3)nc3ccccn23)cc(OC)c1OC | 642
Cc1nn(-c2ccc(C(=O)NC3CCCC3)cn2)c(C)c1C | 907
CC1=C(c2ccc(F)cc2)S(=O)(=O)N=C1N1CCCN(C(=O)NC2CCCC2)CC1 | 820
O=C(Cn1c(=O)oc2ccccc21)N1CCC(Oc2nc3c(Cl)cccc3s2)CC1 | 979
CCCN1CCn2cc(S(=O)(=O)Nc3ccccc3F)cc2C1=O | 718
Cc1nnc2ccc(S(=O)(=O)Nc3ccc(Cl)cc3)cn12 | 711
Cn1cc(C(=O)NCc2cccc(C(F)(F)F)c2)c2cccnc21 | 818
CN(CC1CCOC1)C(=O)NCCc1ccccc1 (configuration not stated) | 650
Cc1ccc(N2CCC(NC(=O)Nc3ccc(C)cc3C)C2=O)cc1 (configuration not stated) | 875
C[C@@H](NC(=O)c1ccccc1Br)C(=O)NCc1cscn1 | 635
COc1cc(CN2CC(Oc3ccc(-c4noc(C5CC5)n4)cc3)C2)cc(OC)c1 | 772
CCC(=O)N(C1CCOCC1)C1CCN(S(=O)(=O)c2ccc(F)c(Cl)c2)CC1 | 884
Cc1ccc2nc(-c3ccc(NC(=O)c4cc5cccnc5n(C)c4=O)cc3)sc2c1 | 864
COc1cccc(NC(=O)Nc2c(-c3ccsc3)nc3ccccn23)c1 | 639
O=C(NCc1cc(F)cc(F)c1)C1CCCN(c2ccc(-c3ccccc3)nn2)C1 (configuration not stated) | 735
COC(=O)c1ccc2c(=O)n(-c3cc(C)cc(C)c3)c(N3CCN(C(C)C)CC3)nc2c1 | 695
CCc1ccccc1NC(=O)C(=O)c1cn(CC(=O)N2CCCC2)c2ccccc12 | 644
CCOc1ccccc1CNC(=O)C1CCN(Cc2cn(CC)c3ccc(OC)cc23)CC1 | 759
Cc1ccnc(Nc2ccc(NCCNS(=O)(=O)Cc3ccccc3)nn2)c1 | 570
CCNC(=O)C1CCc2sc(C(=O)N3CCOCC3)cc2C1 (configuration not stated) | 632
CCN1C(=O)c2cccnc2Sc2cc(CNC(=O)c3cccc(F)c3)ccc21 | 791
Cc1ccc(-c2cc3c(=O)n(Cc4noc(CN5CCOCC5)n4)ccn3n2)cc1C | 777
COc1ccc(OCc2noc(CNC(=O)NCc3ccc(F)cc3)n2)cc1 | 770

SMILES | RP-LC retention time [s]
CC(C)NC[C@H](O)COc1cccc2ccccc12 | 720
Cn1cc(-c2nc(C(=O)NCc3ccc(F)c(Cl)c3)cs2)c2cccnc21 | 975
Cc1cccc(CNC(=O)Cn2c(C)cc(-c3nnc(C4CCC4)o3)c2C)c1 | 883
O=C(CSc1nnc(Cc2ccccc2)o1)N1CCOCC1 | 636
Cc1cccc(NC(=O)Cn2ccc3sccc3c2=O)c1C | 741
COc1cc(NC(=O)N2CCCC(C)(C(=O)NCc3ccc(F)cc3)C2)cc(OC)c1OC (configuration not stated) | 778
COc1ccc(C)cc1NC(=O)N1CC(c2nc(C(C)C)nn2C)C1 | 710
Cc1ccc2c(Nc3cccc(C#N)c3)c(C(=O)N3CCCCC3)cnc2n1 | 598
COc1cccc(CSc2ccc(-n3nc4c(c3C)CCC4)nn2)c1 | 1240
Cc1ccc(C)c(N2CCN(c3ccnc(SCC(=O)NCc4ccc(F)cc4)n3)CC2)c1 | 908
Cc1ccc(C)c(N2CCN(c3ccnc(SCC(=O)Nc4ccc(F)cc4C)n3)CC2)c1 | 1010
CCCCN1C(=O)C(CC(=O)N2CCOCC2)Sc2ncccc21 (configuration not stated) | 708
Cc1cc(C(=O)Nc2cccc3ccccc23)n(-c2ccccc2)n1 | 908
O=C1CCCCC(C(=O)Nc2cccc(Cl)c2)N1 (configuration not stated) | 712
COCC(C)NS(=O)(=O)c1c(C)[nH]c(=O)[nH]c1=O (configuration not stated) | 570
COc1ccc(Cc2nc3nccc(-c4cc(OC)c(OC)c(OC)c4)n3n2)cc1 | 860
COC(=O)c1cc(OCC(=O)NCc2ccc3c(c2)OCO3)c2ccccc2n1 | 739
COc1cc(NC(=O)C2CCCN(S(=O)(=O)c3cc(-c4noc(C)n4)cs3)C2)cc(OC)c1 (configuration not stated) | 949
Cc1noc(C)c1C1CCCN1C(=O)Cc1cccc(F)c1 (configuration not stated) | 777
Cc1nc(-c2noc(-c3ccccc3)n2)cn1CC(=O)N1CCN(c2ccc(F)cc2)CC1 | 868
O=C(Cn1nc2n(c1=O)CCCC2)NCc1ccccc1Br | 663
O=C(NC1CCCCCC1)c1ccc2c(c1)nc1n2CCN(Cc2ccccc2)C1=O | 829
CCN(CC)CCNC(=O)c1nc(-c2oc3c(C)cccc3c2C)no1 | 677

SMILES | RP-LC retention time [s]
COc1ccc(S(=O)(=O)N2CCN(CCc3cn(C)c4ncccc34)CC2)cc1Cl | 654
Cc1ccc(NC(=O)Cn2nc3n(c2=O)CCCC3)cc1 | 640
O=C(NCc1ccccc1)c1ccc(CN2CCN(Cc3ccc(F)cc3)C(=O)C2=O)cc1 | 774
CCOC(=O)c1nc(Nc2ccccc2OCC)c2ccccc2n1 | 942
O=c1[nH]c2sc3c(c2c(=O)n1-c1ccccc1)CCCC3 | 772
CCCN1C(=O)COc2ccc(-c3noc(CNS(=O)(=O)c4ccccc4)n3)cc21 | 888
CC(C)NC(=O)c1ccnn1C | 604
O=C(Cn1cccc1-c1nnc(C2CCC2)o1)N1CCN(Cc2ccc3c(c2)OCO3)CC1 | 688
CCOC(=O)c1cccc(N2C=C(C#N)S(=O)(=O)c3ccc(F)cc32)c1 | 939
CCC(C)NC(=O)NCCC1CCN(S(=O)(=O)c2ccccc2)CC1 (configuration not stated) | 742
COc1ccc(CNC(=O)c2nnc(-c3ccc(S(=O)(=O)N(C)C)cc3)o2)c(OC)c1 | 865
CCn1cc(CC(=O)NCc2cccc(OC)c2)c2cccnc21 | 695
CCOc1ccccc1NC(=O)Nc1nnc(Cc2ccccc2)o1 | 845
COC(=O)C1=CN(c2ccc(F)c(Cl)c2)c2ccc(F)cc2S1(=O)=O | 929
Cn1cccc1C(=O)C(=O)Nc1ccc(F)cc1Cl | 1070
CCOc1ncccc1CNC(=O)c1ccc2cc[nH]c2c1 | 756
Cc1cc([N+](=O)[O-])ccc1Nc1cccc(Cl)c1C | 1030
Cc1ccc(-c2ccc(S(=O)(=O)N3CCCC3)cc2)cc1 | 1070
COc1ccc(-c2c(C(=O)Nc3ccc(OC)cc3OC)nc3ccccn23)cc1 | 650
Cc1ccc(N2C(=O)C3N=NN(Cc4nc(-c5ccc(C)c(C)c5)no4)C3C2=O)cc1 (configuration not stated) | 1110
COc1cccc(CNC(=O)N2CCCC2c2cc(C(C)C)no2)c1 (configuration not stated) | 836
Cc1cc2c(=O)n(CC(=O)Nc3cc(Cl)ccc3C)ccc2s1 | 847
CCC(=O)N1CCc2cc(N3CC(C(=O)Nc4ccc(C)cc4C)CC3=O)ccc21 (configuration not stated) | 742
